For one assay, the target named is T1, TrkB (Mus musculus, UniProt P15209).
T1 construct: from tissue; host or cells: brain of wild-type C57BL/6J mice
As to the kind of experiment: TrkB activation in brain of chronically treated mice (immunoblotting p-TrkB 817, immunohistochemistry p-TrkB Y816). It is filed as in vivo. The conditions noted are these: for TrkB activation in mouse brain after chronic treatment: 5 mg/kg oral 21 days, brain lysates, immunoblotting p-TrkB 817; for TrkB activation in the dentate gyrus: 5 mg/kg oral, after 21 days treatment, immunohistochemistry. The procedure:
Paraffin section were deparaffinized in xylene and rehydrated gradient ethanol solution. Samples were boiled in 10 mM sodium citrate buffer for 20 min for antigen retrieval purpose. Brain sections were incubated with anti-TrkB (BD biosciences, San Jose, Calif.) 1:50, and anti-p-TrkB Y816 was used at 1:300 dilution. Secondary antibody were applied using antirabbit-Alexa 594 (red), antimouse-FITC (green). DAPI (blue) was used for nuclear staining.
The brain lysates from above chronically treated mice were analyzed by immunoblotting with anti-p-TrkA 794 and p-TrkB 817.
Brain tissues were fixed in 4% paraformaldehyde overnight followed by paraffin embedding. Sections of […] were cut. For immunohistochemical staining, brain sections were deparaffinized in xylene and rehydrated in graded alcohols. Endogenous peroxidase activity was blocked by 3% hydrogen peroxide for 5 minutes and all slides were boiled in 10 mM sodium citrate buffer (pH 6.0) for 10 minutes. Phosphorylated Trk B816 and Trk B were detected using specific antibodies. Paraffin section were deparaffinized in xylene and rehydrated gradient ethanol solution. Samples were boiled in 10 mM sodium citrate buffer for 20 min for antigen retrieval purpose. Brain sections were incubated with anti-TrkB (BD biosciences, San Jose, Calif.) 1:50, p-TrkB 1:300 dilution. Secondary antibodies were applied using anti-rabbit-Alexa 594 (red), anti-mouse-FITC (green). DAPI (blue) was used for nuclear staining
Administration of chronic, but not acute, monoamine antidepressant drugs enhances adult neurogenesis in dentate gyrus of rodents and non-human primates, while blocking neurogenesis by irradiation attenuates the behavioral antidepressant-like effects of these drugs in some rodent strains. […] Ablation of TrkB specifically in hippocampal neural progenitor cells prevents chronic antidepressant-induced neurogenesis and renders the mice behaviorally non-responsive to chronic antidepressant treatment. To test whether increasing TrkB activation by these small agonists would elevate the neurogenesis, adult male C57BL/6J mice were orally injected with either vehicle, 7,8-DHF, or 4′-DMA-7,8-DHF (5 mg/kg) for 21 days. At the end of treatment (day 21), animals were injected with BrdU (50 mg/kg, intraperitoneally) to label dividing cells and were sacrificed 2 h later. BrdU immunohistochemistry was used to assess progenitor proliferation (FIG. 4A). […] Therefore, chronic treatment with TrkB agonists promotes neurogenesis in the hippocampus of mice.
(§1) Accumulating evidence supports that BDNF plays a role in mediating therapeutic effects of antidepressants. Infusion of exogenous BDNF into hippocampus or brain stem has anti-depressant-like behavioral effect. A forced swim test is broadly used for screening of potential antidepressant drugs and is widely used to measure antidepressant activity. To explore whether 4′-DMA-7,8-DHF and 7,8-DHF have any antidepressant effect like BDNF, a forced swim test was conducted after chronic treatment of the mice for 21 days via oral injection.
(§2) BDNF/TrkB signaling plays an role in mediating antidepressants' therapeutic effects. A forced swim test is broadly used for screening of potential antidepressant drugs and is widely used to measure antidepressant activity. To explore whether imidazole flavanoid and compound i have any antidepressant effect like BDNF, a forced swim test was conducted after chronic treatment of the mice for 21 days via oral administration.
In general terms: In western blotting, separated proteins are transferred to a membrane and probed.

Assay [1] is described as follows: Forced swim test in C57BL/6J mice. In kind it is in vivo, mouse. To be noted: 5 mg/kg oral for 21 days, male C57BL/6J mice, immobility in last 4 min of 6 min. On the procedure:
Male C57BL/6J mice (8 mice/group) were orally administrated by gavage with 5 mg/kg 4′-DMA-7,8-DHF and 7,8-DHF and vehicle solvent saline for 21 days and subjected to a forced swim test (6 min, immobility recorded in the last 4 min). Data are presented as mean±SEM.
Forced swim test with imidazole flavonoid and compound i. Male C57BL/6J mice (8 mice/group) were orally administrated by gavage with 5 mg/kg 4′-DMA-7,8-DHF and 7,8-DHF and vehicle solvent saline for 21 days, and subjected to a forced swim test (6 min, immobility recorded in the last 4 min). Data are presented as mean±SEM.
Adult male mice (2-3 months old) were randomly submitted to a forced swim test without a pre-swim. Saline, 4′-DMA-7,8-DHF and 7,8-DHF (5 mg/kg) were orally injected for 21 days. The mice were allowed to adapt to the test room for 2 days. The mice were placed in a clear glass cylinder with a diameter of 16 cm, half-filled with clear water at 24° C.
as §1, §2

Molecules are shown by their SMILES.

T1 sequence (P15209 32-821): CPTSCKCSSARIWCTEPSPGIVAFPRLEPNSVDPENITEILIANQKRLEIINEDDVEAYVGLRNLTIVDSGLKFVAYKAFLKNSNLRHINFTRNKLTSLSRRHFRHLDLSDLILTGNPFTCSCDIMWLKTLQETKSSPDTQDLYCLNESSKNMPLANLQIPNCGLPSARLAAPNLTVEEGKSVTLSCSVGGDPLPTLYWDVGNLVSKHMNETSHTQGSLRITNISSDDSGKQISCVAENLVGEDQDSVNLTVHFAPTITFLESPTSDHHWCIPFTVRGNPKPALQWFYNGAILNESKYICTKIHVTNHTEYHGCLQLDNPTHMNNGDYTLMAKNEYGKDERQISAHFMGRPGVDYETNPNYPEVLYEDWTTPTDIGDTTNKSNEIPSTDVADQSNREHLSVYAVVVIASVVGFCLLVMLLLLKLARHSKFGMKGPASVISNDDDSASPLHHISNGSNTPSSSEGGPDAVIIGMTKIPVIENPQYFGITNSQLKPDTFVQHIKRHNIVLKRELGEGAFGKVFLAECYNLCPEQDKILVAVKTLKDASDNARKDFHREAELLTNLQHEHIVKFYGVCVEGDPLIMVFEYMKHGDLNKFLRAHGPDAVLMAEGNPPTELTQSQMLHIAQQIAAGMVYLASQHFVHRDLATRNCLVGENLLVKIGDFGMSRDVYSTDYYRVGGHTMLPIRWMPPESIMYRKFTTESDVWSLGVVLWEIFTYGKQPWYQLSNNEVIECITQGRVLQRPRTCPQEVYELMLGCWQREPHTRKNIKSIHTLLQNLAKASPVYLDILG

With `CN(C)c1ccc(-c2cc(=O)c3ccc(O)c(O)c3o2)cc1` [4′-DMA-7,8-DHF, 4′-dimethylamino-7,8-dihydroxyflavone], on TrkB, the “TrkB activation in mouse brain after chronic treatment” value is “evidently provoked TrkB” and the “TrkB activation in the dentate gyrus” value was “markedly activated”. The “swimming immobility in forced swim test” value in assay [1] was “evidently reduced the immobility”.
The corresponding values for `O=c1cc(-c2ccccc2)oc2c(O)c(O)ccc12` [7,8-DHF, 7,8-dihydroxyflavone, reference compound] are “evidently provoked TrkB”, “markedly activated” and “significantly decreased”.
Take `CN(C)c1ccc(-c2cc(=O)c3ccc4nc[nH]c4c3o2)cc1` [compound m, 8-(4-(dimethylamino)phenyl)chromeno[7,8-d]imidazol-6(1H)-one]: the “TrkB activation in mouse brain after chronic treatment” value on TrkB (listed as imidazole flavanoid) is reported as “evidently provoked TrkB”; at TrkB (listed as imidazole-derivative), “stronger activity than compound i”. For the same molecule, the “swimming immobility in forced swim test” value in assay [1] (listed as imidazole flavanoid) is listed as “significantly decreased”; in assay [1] (listed as imidazole-derivative), “more robust antidepressant effect than compound i”.

The values are drawn from US9504674B2, “TrkB agonists and methods of use” (EMORY UNIVERSITY, priority 2010, dated 2016).
